# Results reported in patent publication US20250312352A1, “GLP-1R MODULATING COMPOUNDS” (Gilead Sciences, Inc., priority 2021, published 2025).
# Target: T1, GLP-1R (Homo sapiens, UniProt P43220)
# T1 construct: host or cells: CHO cells
# Assay: GLP-1R activation cAMP assay (Assay 1 or Assay 2)
# Type: cell-based
# Settings: cAMP increase in CHO cells stably expressing GLP-1R; compounds run on one of the two cAMP assays
# Summary of the method: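 EC50 values come from a sigmoidal fit of HTRF-detected cAMP rise versus log agonist concentration. GLP-1R-expressing CHO cells, equilibrated 1 h at 37 °C in HBSS with HEPES and BSA, received a 10-point compound dose series for 30 min before detection.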
# T1 sequence (P43220 24-463): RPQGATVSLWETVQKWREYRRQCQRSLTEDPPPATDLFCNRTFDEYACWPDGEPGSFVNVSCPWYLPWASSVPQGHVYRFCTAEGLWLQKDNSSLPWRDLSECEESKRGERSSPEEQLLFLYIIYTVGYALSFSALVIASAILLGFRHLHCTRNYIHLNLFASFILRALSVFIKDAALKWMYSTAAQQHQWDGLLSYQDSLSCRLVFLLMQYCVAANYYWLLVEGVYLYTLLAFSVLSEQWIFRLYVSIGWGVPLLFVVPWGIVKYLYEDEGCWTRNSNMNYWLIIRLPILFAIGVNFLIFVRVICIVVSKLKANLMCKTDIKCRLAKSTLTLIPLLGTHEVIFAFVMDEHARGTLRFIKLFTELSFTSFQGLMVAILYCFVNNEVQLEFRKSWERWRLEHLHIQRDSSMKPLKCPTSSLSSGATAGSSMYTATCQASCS
row,Structure (SMILES),EC50 [pM]
1,"O=C(O)c1ccc2nc(Cc3cc(F)c(-c4cccc(OCc5cc(C(F)(F)F)sn5)n4)cc3F)n(C[C@@H]3CCO3)c2c1 [Example 13, (S)-2-(2,5-difluoro-4-(6-((5-(trifluoromethyl)isothiazol-3-yl)methoxy)pyridin-2-yl)benzyl)-1-(oxetan-2-ylmethyl)-1H-benzo[d]imidazole-6-carboxylic acid]",540
2,"Cn1cncc1-c1cnc(COc2cccc(-c3cc(F)c(Cc4nc5ccc(C(=O)O)cc5n4C[C@@H]4CCO4)cc3F)n2)s1 [Example 102, (S)-2-(2,5-difluoro-4-(6-((5-(1-methyl-1H-imidazol-5-yl)thiazol-2-yl)methoxy)pyridin-2-yl)benzyl)-1-(oxetan-2-ylmethyl)-1H-benzo[d]imidazole-6-carboxylic acid]",13600
3,"O=C(O)c1ccc2nc(Cc3cc(F)c(-c4cccc(OCc5cc(C(F)(F)F)ns5)n4)cc3F)n(C[C@@H]3CCO3)c2c1 [Example 81, (S)-2-(2,5-difluoro-4-(6-((3-(trifluoromethyl)isothiazol-5-yl)methoxy)pyridin-2-yl)benzyl)-1-(oxetan-2-ylmethyl)-1H-benzo[d]imidazole-6-carboxylic acid]",810
4,"N#CC1(NC(=O)c2cc(Cl)c(COc3cccc(-c4cc(F)c(Cc5nc6ccc(C(=O)O)cc6n5C[C@@H]5CCO5)cc4F)n3)cn2)COC1 [Example 187, (S)-2-(4-(6-((4-chloro-6-((3-cyanooxetan-3-yl)carbamoyl)pyridin-3-yl)methoxy)pyridin-2-yl)-2,5-difluorobenzyl)-1-(oxetan-2-ylmethyl)-1H-benzo[d]imidazole-6-carboxylic acid]",120
5,"O=C(O)c1ccc2nc(Cc3cc(F)c(-c4cccc(OCc5ccc(C#Cc6cc[nH]c(=O)c6)cc5F)n4)cc3F)n(C[C@@H]3CCO3)c2c1 [Example 356, (S)-2-(2,5-difluoro-4-(6-((2-fluoro-4-((2-oxo-1,2-dihydropyridin-4-yl)ethynyl)benzyl)oxy)pyridin-2-yl)benzyl)-1-(oxetan-2-ylmethyl)-1H-benzo[d]imidazole-6-carboxylic acid]",99
6,"CCOc1nnc(COc2nc(-c3ccc(Cc4nc5ccc(C(=O)O)cc5n4[C@@H]4COCC4(C)C)c(F)c3)ccc2F)s1 [Example 397, (S)-1-(4,4-dimethyltetrahydrofuran-3-yl)-2-(4-(6-((5-ethoxy-1,3,4-thiadiazol-2-yl)methoxy)-5-fluoropyridin-2-yl)-2-fluorobenzyl)-1H-benzo[d]imidazole-6-carboxylic acid]",497
7,"N#Cc1cc(F)c(COc2cccc(-c3cc(F)c(Cc4nc5ccc(C(=O)O)cc5n4C[C@@H]4CCO4)cc3F)n2)s1 [Example 52, (S)-2-(4-(6-((5-cyano-3-fluorothiophen-2-yl)methoxy)pyridin-2-yl)-2,5-difluorobenzyl)-1-(oxetan-2-ylmethyl)-1H-benzo[d]imidazole-6-carboxylic acid]",130
8,"Cn1cc(NC(=O)c2cc(Cl)c(COc3cccc(-c4cc(F)c(Cc5nc6ccc(C(=O)O)cc6n5C[C@@H]5CCO5)cc4F)n3)cn2)cn1 [Example 194, (S)-2-(4-(6-((4-chloro-6-((1-methyl-1H-pyrazol-4-yl)carbamoyl)pyridin-3-yl)methoxy)pyridin-2-yl)-2,5-difluorobenzyl)-1-(oxetan-2-ylmethyl)-1H-benzo[d]imidazole-6-carboxylic acid]",170
9,"O=C(O)c1cc(F)c2nc(Cc3cc(F)c(-c4ccc(F)c(OCc5ncc(C(F)F)s5)n4)cc3F)n(C[C@@H]3CCO3)c2c1 [Example 407, (S)-2-(4-(6-((5-(difluoromethyl)thiazol-2-yl)methoxy)-5-fluoropyridin-2-yl)-2,5-difluorobenzyl)-4-fluoro-1-(oxetan-2-ylmethyl)-1H-benzo[d]imidazole-6-carboxylic acid]",239
10,"COCCn1c(Cc2cc(F)c(-c3cccc(OCc4ccc(C#CC5COC5)cc4F)n3)cc2F)nc2ccc(C(=O)O)cc21 [Example 231, 2-[[2,5-difluoro-4-[6-[[2-fluoro-4-[2-(oxetan-3-yl)ethynyl]phenyl]methoxy]-2-pyridyl]phenyl]methyl]-3-(2-methoxyethyl)benzimidazole-5-carboxylic acid]",1510
11,"NC(=O)c1cccc(COc2cccc(-c3cc(F)c(Cc4nc5ccc(C(=O)O)cc5n4C[C@@H]4CCO4)cc3F)n2)n1 [Example 374, (S)-2-(4-(6-((6-carbamoylpyridin-2-yl)methoxy)pyridin-2-yl)-2,5-difluorobenzyl)-1-(oxetan-2-ylmethyl)-1H-benzo[d]imidazole-6-carboxylic acid]",478

# Further lines, results first:
row,EC50 [pM],Structure (SMILES)
1,80,"Cc1nc(COc2cccc(-c3cc(F)c(Cc4nc5ccc(C(=O)O)cc5n4C[C@@H]4CCO4)cc3F)n2)sc1Br [Example 27, (S)-2-(4-(6-((5-bromo-4-methylthiazol-2-yl)methoxy)pyridin-2-yl)-2,5-difluorobenzyl)-1-(oxetan-2-ylmethyl)-1H-benzo[d]imidazole-6-carboxylic acid]"
2,280,"Cn1cc(C#Cc2cc(F)c(COc3cccc(-c4cc(F)c(Cc5nc6ccc(C(=O)O)cc6n5C[C@@H]5CCO5)cc4F)n3)s2)cn1 [Example 117, (S)-2-(2,5-difluoro-4-(6-((3-fluoro-5-((1-methyl-1H-pyrazol-4-yl)ethynyl)thiophen-2-yl)methoxy)pyridin-2-yl)benzyl)-1-(oxetan-2-ylmethyl)-1H-benzo[d]imidazole-6-carboxylic acid]"
3,580,"Cc1cc(Cc2nc3ccc(C(=O)O)cc3n2C[C@@H]2CCO2)c(F)cc1-c1cccc(OCc2ncc(-c3cnn(C(F)F)c3)s2)n1 [Example 331, (S)-2-(4-(6-((5-(1-(difluoromethyl)-1H-pyrazol-4-yl)thiazol-2-yl)methoxy)pyridin-2-yl)-2-fluoro-5-methylbenzyl)-1-(oxetan-2-ylmethyl)-1H-benzo[d]imidazole-6-carboxylic acid]"
4,620,"Cn1cc(-c2cc(COc3cccc(-c4cc(F)c(Cc5nc6ccc(C(=O)O)cc6n5C[C@@H]5CCO5)cc4F)n3)nn2C)cn1 [Example 109, (S)-2-(4-(6-((1′,2-dimethyl-1′H,2H-[3,4′-bipyrazol]-5-yl)methoxy)pyridin-2-yl)-2,5-difluorobenzyl)-1-(oxetan-2-ylmethyl)-1H-benzo[d]imidazole-6-carboxylic acid]"
5,11800,"O=C(O)c1ccc2nc(Cc3cc(F)c(-c4cccc(OCc5cnco5)n4)cc3F)n(C[C@@H]3CCO3)c2c1 [Example 169, (S)-2-(2,5-difluoro-4-(6-(oxazol-5-ylmethoxy)pyridin-2-yl)benzyl)-1-(oxetan-2-ylmethyl)-1H-benzo[d]imidazole-6-carboxylic acid]"
6,150,"O=C(O)c1ccc2nc(Cc3cc(F)c(-c4cccc(OCc5ncc(C#Cc6cncs6)s5)n4)cc3F)n(C[C@@H]3CCO3)c2c1 [Example 116, (S)-2-(2,5-difluoro-4-(6-((5-(thiazol-5-ylethynyl)thiazol-2-yl)methoxy)pyridin-2-yl)benzyl)-1-(oxetan-2-ylmethyl)-1H-benzo[d]imidazole-6-carboxylic acid]"
7,188,"CCOc1nc(Cl)c(COc2cccc(-c3cc(F)c(Cc4nc5ccc(C(=O)O)cc5n4C[C@@H]4CCO4)cc3F)n2)s1 [Example 353, (S)-2-(4-(6-((4-chloro-2-ethoxythiazol-5-yl)methoxy)pyridin-2-yl)-2,5-difluorobenzyl)-1-(oxetan-2-ylmethyl)-1H-benzo[d]imidazole-6-carboxylic acid]"
8,310,"O=C(O)c1ccc2nc(Cc3cc(F)c(-c4cccc(OCc5ncc(-c6ccccn6)s5)n4)cc3F)n(C[C@@H]3CCO3)c2c1 [Example 107, (S)-2-(2,5-difluoro-4-(6-((5-(pyridin-2-yl)thiazol-2-yl)methoxy)pyridin-2-yl)benzyl)-1-(oxetan-2-ylmethyl)-1H-benzo[d]imidazole-6-carboxylic acid]"
9,720,"O=C(O)c1ccc2nc(Cc3cc(F)c(-c4cccc(OCc5ccc(-c6cn(C78CC(C7)C8)nn6)cc5F)n4)cc3F)n(C[C@@H]3CCO3)c2c1 [Example 216, (S)-2-(4-(6-((4-(1-(bicyclo[1.1.1]pentan-1-yl)-1H-1,2,3-triazol-4-yl)-2-fluorobenzyl)oxy)pyridin-2-yl)-2,5-difluorobenzyl)-1-(oxetan-2-ylmethyl)-1H-benzo[d]imidazole-6-carboxylic acid]"
10,683,"Cc1nnc(COc2cccc(-c3cc(F)c(Cc4nc5ccc(C(=O)O)cc5n4C[C@@H]4CCO4)cc3F)n2)s1 [Example 308, (S)-2-(2,5-difluoro-4-(6-((5-methyl-1,3,4-thiadiazol-2-yl)methoxy)pyridin-2-yl)benzyl)-1-(oxetan-2-ylmethyl)-1H-benzo[d]imidazole-6-carboxylic acid]"
11,140,"Cn1cc(-c2cnc(COc3nc(-c4cc(F)c(Cc5nc6ccc(C(=O)O)cc6n5C[C@@H]5CCO5)cc4F)ccc3F)s2)cn1 [Example 99, (S)-2-(2,5-difluoro-4-(5-fluoro-6-((5-(1-methyl-1H-pyrazol-4-yl)thiazol-2-yl)methoxy)pyridin-2-yl)benzyl)-1-(oxetan-2-ylmethyl)-1H-benzo[d]imidazole-6-carboxylic acid]"
12,620,"CNC(=O)c1cc(Cl)c(COc2cccc(-c3cc(F)c(Cc4nc5c(F)cc(C(=O)O)cc5n4C[C@@H]4CCO4)cc3C)n2)cn1 [Example 394, (S)-2-(4-(6-((4-chloro-6-(methylcarbamoyl)pyridin-3-yl)methoxy)pyridin-2-yl)-2-fluoro-5-methylbenzyl)-4-fluoro-1-(oxetan-2-ylmethyl)-1H-benzo[d]imidazole-6-carboxylic acid]"
13,385,"O=C(O)c1ccc2nc(Cc3cc(F)c(-c4ccc(F)c(OCc5ncc(C(F)F)s5)n4)cc3F)n(C[C@@H]3CCO3)c2c1 [Example 406, (S)-2-(4-(6-((5-(difluoromethyl)thiazol-2-yl)methoxy)-5-fluoropyridin-2-yl)-2,5-difluorobenzyl)-1-(oxetan-2-ylmethyl)-1H-benzo[d]imidazole-6-carboxylic acid]"
